Data published in patent US10383880B2 (Reset Therapeutics, Inc., priority 2012, dated 2019).

These compounds were tested on Per2-dLuc U2OS reporter cells (assay: Per2 assay for evaluating the potency of test compounds (high-throughput circadian assay)). Conditions: Homo sapiens, U2OS, stable U2OS reporter cells harboring Per2-dLuc; luminescence monitored over 4-5 days at 35° C.
Format: cell-based
Method in brief: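 Compounds (0.5% DMSO final) were added right after serum-shock synchronization of Per2-dLuc U2OS reporter cells in minimal medium containing 1.0 mM beetle luciferin. Reporter luminescence was followed at 35 °C for 4–5 days to extract rhythm period, amplitude and phase, and EC50 values were obtained from these.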
CCN(CC(O)Cn1c2ccc(F)cc2c2cc(F)ccc21)S(C)(=O)=O (centres unmarked) [Compound 156, N-(3-(3,6-ifluoro-9H-carbazol-9-yl)-2-hydroxypropyl)-N-ethylmethanesulfonamide] gave an EC50 of 471 nM.
For O=S1(=O)C(F)CCCN1CC(O)Cn1c2ccccc2c2ccccc21 (centres unmarked) [Compound 121, 2-(3-(9H-Carbazol-9-yl)-2-hydroxypropyl)-6-fluoro-1,2-thiazinane-1,1-dioxide], the EC50 was 51 nM.
With CC(C)N(CC(C)(O)Cn1c2ccc(F)cc2c2cc(F)ccc21)S(C)(=O)=O (centres unmarked) [Compound 150, N-(3-(3,6-Difluoro-9H-carbazol-9-yl)-2-hydroxy-2-methylpropyl)-N-isopropylmethanesulfonamide] the EC50 was 5050 nM.
CS(=O)(=O)N(CCc1ccccc1)CC(O)Cn1c2ccccc2c2ccccc21 (centres unmarked) [Compound 54, N-(3-(9H-Carbazol-9-yl)-2-hydroxypropyl)-N-phenethylmethanesulfonamide] showed an EC50 of 824 nM.
CS(=O)(=O)N(CC(O)Cn1c2ccccc2c2ccccc21)c1cccc(Cl)c1 (centres unmarked) [Compound 64, N-(3-(9H-Carbazol-9-yl)-2-hydroxypropyl)-N-(3-chlorophenyl)methanesulfonamide] showed an EC50 of 1000 nM.
O=S1(=O)N(CC(O)Cn2c3ccccc3c3ccccc32)CCCC1(F)F (centres unmarked) [Compound 122, 2-(3-(9H-Carbazol-9-yl)-2-hydroxypropyl)-6,6-difluoro-1,2-thiazinane-1,1-dioxide] was tested, and the EC50 was 329 nM.
CN(CC(O)Cn1c2ccc(F)cc2c2ccc(F)cc21)S(C)(=O)=O (centres unmarked) [Compound 103, N-(3-(2,6-Difluoro-9H-carbazol-9-yl)-2-hydroxypropyl)-N-methylmethanesulfonamide] gave an EC50 of 2210 nM.
With CS(=O)(=O)N(CC(O)Cn1c2ccccc2c2ccccc21)CC1CCCO1 (centres unmarked) [Compound 51, N-(3-(9H-Carbazol-9-yl)-2-hydroxypropyl)-N-((tetrahydrofuran-2-yl)methyl)methanesulfonamide] the EC50 was 371 nM.
With CC(O)(CN1CCCCS1(=O)=O)Cn1c2ccc(F)cc2c2cc(F)ccc21 (centres unmarked) [Compound 116, 2-(3-(3,6-Difluoro-9H-carbazol-9-yl)-2-hydroxy-2-methylpropyl)-1,2-thiazinane 1,1-dioxide] the EC50 was 540 nM.
In the case of CC(O)(CN1CCCN(C2CCCCC2)S1(=O)=O)Cn1c2ccc(F)cc2c2cc(F)ccc21 (centres unmarked) [Compound 223, 2-(3-(3,6-Difluoro-9H-carbazol-9-yl)-2-hydroxy-2-methylpropyl)-6-cyclohexyl-1,2,6-thiadiazinane-1,1-dioxide], the EC50 is reported as 6790 nM.
In the case of O=S(=O)(CCCF)N(Cc1ccco1)CC(O)Cn1c2ccccc2c2ccccc21 (centres unmarked) [Compound 10, N-(3-(9H-Carbazol-9-yl)-2-hydroxypropyl)-3-fluoro-N-(furan-2-ylmethyl)propane-1-sulfonamide], the EC50 is reported as 1130 nM.
For CS(=O)(=O)N(CC(O)Cn1c2ccccc2c2ccccc21)c1ccc2cn[nH]c2c1 (centres unmarked) [Compound 78, N-(3-(9H-Carbazol-9-yl)-2-hydroxypropyl)-N-(1H-indazol-6-yl)methanesulfonamide], the EC50 was 6350 nM.
CC1CCN(CC(O)Cn2c3ccc(F)cc3c3cc(F)ccc32)S1(=O)=O (centres unmarked) [Compound 177] showed an EC50 of 202 nM.
O=S1(=O)CCCN1C[C@@H](O)Cn1c2ccccc2c2ccccc21 [Compound 39, (S)-N-(3-(9H-Carbazol-9-yl)-2-hydroxypropyl)isothiazolidine 1,1-dioxide] showed an EC50 of 21 nM.
In the case of CC(O)(Cn1c2ccc(F)cc2c2cc(F)ccc21)C(C)(C)N1CCCS1(=O)=O (centres unmarked) [Compound 245, 2-(4-(3,6-Difluoro-9H-carbazol-9-yl)-3-hydroxy-2,3-dimethylbutan-2-yl)-isothiazolidine-1,1-dioxide], the EC50 is reported as 1150 nM.
Compound COC(=O)N1CCCC(N(CC(O)Cn2c3ccccc3c3ccccc32)S(C)(=O)=O)C1 (centres unmarked) [Compound 130, Methyl 3-(N-(3-(9H-carbazol-9-yl)-2-hydroxypropyl)methylsulfonamido)piperidine-1-carboxylate] has an EC50 of 636 nM.
With O=S(=O)(C1CCCCC1)N(Cc1ccco1)CC(O)Cn1c2ccccc2c2ccccc21 (centres unmarked) [Compound 84, N-(3-(9H-Carbazol-9-yl)-2-hydroxypropyl)-N-(furan-2-ylmethyl)cyclohexanesulfonamide] the EC50 was 892 nM.
CS(=O)(=O)N(CC(O)Cn1c2ccc(F)cc2c2cc(F)ccc21)c1ccc(-n2cccn2)cc1 (centres unmarked) [Compound 213, N-(4-(1H-Pyrazol-1-yl)phenyl)-N-(3-(3,6-difluoro-9H-carbazol-9-yl)-2-hydroxypropyl)methanesulfonamide] showed an EC50 of 2950 nM.
In the case of CS(=O)(=O)N(CC(O)Cn1c2ccc(F)cc2c2cc(F)ccc21)c1ccc(C2CCC2)cc1 (centres unmarked) [Compound 211, N-(4-Cyclobutylphenyl)-N-(3-(3,6-difluoro-9H-carbazol-9-yl)-2-hydroxypropyl)methanesulfonamide], the EC50 is reported as 9240 nM.
CC(C)c1ccc(N(CC(O)Cn2c3ccc(F)cc3c3cc(F)ccc32)S(C)(=O)=O)cc1 (centres unmarked) [Compound 205, N-(3-(3,6-Difluoro-9H-carbazol-9-yl)-2-hydroxypropyl)-N-(4-isopropylphenyl)methanesulfonamide] was tested, and the EC50 was 1210 nM.
For O=S1(=O)CCCN1CC(O)Cn1c2ccc(F)cc2c2c(F)cccc21 (centres unmarked) [Compound 108, N-(3-(3,5-Difluoro-9H-carbazol-9-yl)-2-hydroxypropyl)-isothiazolidine-1,1-dioxide], the EC50 was 388 nM.
For CC1(C)CCN(CC(O)Cn2c3ccc(F)cc3c3cc(F)ccc32)S1(=O)=O (centres unmarked) [Compound 178, 2-(3-(3,6-Difluoro-9H-carbazol-9-yl)-2-hydroxypropyl)-5,5-dimethylisothiazolidine-1,1-dioxide], the EC50 was 73 nM.
With O=S1(=O)Cc2ccccc2N1CC(O)Cn1c2ccccc2c2ccccc21 (centres unmarked) [Compound 36, N-(3-(9H-Carbazol-9-yl)-2-hydroxypropyl)-1,3-dihydrobenzo[c]isothiazole 2,2-dioxide] the EC50 was 539 nM.
For O=S1(=O)CCCCN1CC(O)Cn1c2ccc(F)cc2c2c(F)cccc21 (centres unmarked) [Compound 107, N-(3-(3,5-Diflouoro-9H-carbazol-9-yl)-2-hydroxypropyl)-1,2-thiazinane 1,1-dioxide], the EC50 was 240 nM.
Work on O=S1(=O)CCc2ccccc2N1CC(O)Cn1c2ccccc2c2ccccc21 (centres unmarked) [Compound 37, N-(3-(9H-Carbazol-9-yl)-2-hydroxypropyl)-3,4-dihydro-1H-benzo[c][1,2]thiazine 2,2-dioxide] yielded an EC50 of 34 nM.
CS(=O)(=O)N(CC(O)Cn1c2ccccc2c2ccccc21)CC1CCCC1 (centres unmarked) [Compound 50, N-(3-(9H-Carbazol-9-yl)-2-hydroxypropyl)-N-(cyclopentylmethyl)methanesulfonamide] was tested, and the EC50 was 148 nM.
CC(C)Oc1ccc(N(CC(O)Cn2c3ccc(F)cc3c3cc(F)ccc32)S(C)(=O)=O)cc1 (centres unmarked) [Compound 210, N-(3-(3,6-Difluoro-9H-carbazol-9-yl)-2-hydroxypropyl)-N-(4-isopropoxyphenyl)methanesulfonamide] showed an EC50 of 7210 nM.
For COCCN(CC(O)Cn1c2ccc(F)cc2c2ccc(F)cc21)S(C)(=O)=O (centres unmarked) [Compound 104, N-(3-(2,6-Difluoro-9H-carbazol-9-yl)-2-hydroxypropyl)-N-(2-methoxyethyl)methanesulfonamide], the EC50 was 3500 nM.
With CS(=O)(=O)N(CC(O)Cn1c2ccccc2c2ccccc21)C1CC2CCC1O2 (single isomer, unassigned) [Compound 140A, N-(3-(9H-Carbazol-9-yl)-2-hydroxypropyl)-N-(7-oxabicyclo[2.2.1]heptan-2-yl)methanesulfonamide] the EC50 was 503 nM.
